Experimental data: patent US8937091B2 (Japan Science and Technology Agency, priority 2009, dated 2015)

How the values were obtained:
[1] = test system: IICR (IP3 induced calcium release) in CHO cells; assay: Assay of IICR (IP3 induced calcium release)-inhibiting action; type: cell-based, Chinese hamster; conditions: CHO cells, 10 μM ATP; for inhibition at 10 µM / inhibition at 30 µM / inhibition at 100 µM: Cricetulus griseus, CHO, read-out: IICR level (percentage of inhibition)
How it was run: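 Inhibition (%) of the intracellular calcium increase triggered by 10 μM ATP, measured in CHO cells in BSS with calcium. Compound given 1 min after the buffer exchange and 2 min before ATP; values reported per compound concentration.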

[2] = test system: SOCE (store operated calcium entry) in CHO cells; assay: Assay of SOCE (store operated calcium entry)-inhibiting action; type: cell-based, Chinese hamster; conditions: CHO cells, thapsigargin; for inhibition at 10 µM / inhibition at 30 µM / inhibition at 100 µM: Cricetulus griseus, CHO, read-out: SOCE level (percentage of inhibition)
How it was run: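 CHO cells in calcium-free BSS received compound, then 1 μM thapsigargin 2 min later to deplete stores; after 9 min, 2 mM calcium chloride (final) added. Percent inhibition of the rise in intracellular calcium determined at various compound concentrations.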

Row | SMILES | inhibition at 10 µM ([1]; test compound 10 μmol) [%] | inhibition at 30 µM ([1]; test compound 30 μmol) [%] | inhibition at 100 µM ([1]; test compound 100 μmol) [%] | inhibition at 10 µM ([2]; test compound 10 μmol) [%] | inhibition at 30 µM ([2]; test compound 30 μmol) [%] | inhibition at 100 µM ([2]; test compound 100 μmol) [%] | IICR level (percentage of inhibition) ([1]; test compound 10 μmol) [%] | IICR level (percentage of inhibition) ([1]; test compound 30 μmol) [%] | IICR level (percentage of inhibition) ([1]; test compound 100 μmol) [%] | SOCE level (percentage of inhibition) ([2]; test compound 10 μmol) [%] | SOCE level (percentage of inhibition) ([2]; test compound 30 μmol) [%] | SOCE level (percentage of inhibition) ([2]; test compound 100 μmol) [%]
1 | CC(C)N(CCO)CCC(=O)c1ccc(C#N)cc1 [Example 309, 2-(N-hydroxylethylisopropyl)aminoethyl-4-cyanophenylketone] | 0 | 0 | 20 | 0 | 0 | 10 | – | – | – | – | – | –
2 | CC(C)N(CCC(=O)c1ccc(Cl)cc1)Cc1ccccc1 [Example 310, 2-(N-benzylisopropyl)aminoethyl-4-chloro-phenylketone] | 80 | 80 | 70 | 0 | 0 | 10 | – | – | – | – | – | –
3 | CC(C)N(CCO)CCC(=O)c1ccc(Cl)cc1 [Example 311, 2-(N-hydroxyethylisopropyl)aminoethyl-4-chloro-phenylketone] | 50 | 30 | 50 | 0 | 0 | 10 | – | – | – | – | – | –
4 | CC(C)N(CCO)CCC(=O)c1ccccc1 [Example 312, 2-(N-hydroxyethylisopropyl)aminoethylphenylketone] | 20 | 20 | 80 | 0 | 0 | 10 | – | – | – | – | – | –
5 | CCN(CCC(=O)c1ccc(F)cc1)Cc1ccccc1 [Example 313, 2-(N-benzylethyl)aminoethyl-4-fluoro-phenylketone] | 20 | 20 | 30 | 0 | 0 | 30 | – | – | – | – | – | –
6 | Cc1ccsc1C(=O)CCN(Cc1ccccc1)C(C)(C)C [Example 314, 2-(N-benzyl-t-butyl)aminoethyl-3-methyl-2-thienylketone] | 70 | 70 | 100 | 0 | 10 | 20 | – | – | – | – | – | –
7 | Cc1csc(C(=O)CCN(Cc2ccccc2)C(C)(C)C)c1 [Example 315, 2-(N-benzyl-t-butyl)aminoethyl-4-methyl-2-thienylketone] | 80 | 90 | 100 | 0 | 0 | 30 | – | – | – | – | – | –
8 | Cc1ccc(C(=O)CCN(Cc2ccccc2)C(C)(C)C)s1 [Example 316, 2-(N-benzyl-t-butyl)aminoethyl-5-methyl-2-thienylketone] | 70 | 80 | 100 | 0 | 10 | 20 | – | – | – | – | – | –
9 | CC(C)(C)N(CCC(=O)c1ccc2c(c1)OCCO2)Cc1ccccc1 [Example 317, 2-(N-benzyl-t-butyl)aminoethyl-5,6-ethylenedioxy-2-phenylketone] | 90 | 95 | 100 | 10 | 10 | 30 | – | – | – | – | – | –
10 | Cc1ccc(C(=O)CCN(Cc2ccccc2)C(C)C)s1 [Example 318, 2-(N-benzylisopropyl)aminoethyl-5-methyl-2-thienylketone] | 10 | 60 | 80 | 10 | 20 | 40 | – | – | – | – | – | –
11 | CCN(CCC(=O)c1ccc(C)s1)Cc1ccccc1 [Example 319, 2-(N-benzylethyl)aminoethyl-5-methyl-2-thienylketone] | 20 | 10 | 70 | 0 | 10 | 20 | – | – | – | – | – | –
12 | O=C(CCN(CCO)CCO)c1ccc(I)s1 [Example 320] | 0 | 0 | 70 | 20 | 40 | 50 | – | – | – | – | – | –
13 | Cc1csc(C(=O)CCN(Cc2ccccc2)C(C)C)c1 [Example 321, 2-(N-benzylisopropyl)aminoethyl-4-methyl-2-thienylketone] | 20 | 70 | 100 | 0 | 0 | 0 | – | – | – | – | – | –
14 | Cc1csc(C(=O)CCN(Cc2ccccc2)Cc2ccccc2)c1 [Example 322, 2-(N-dibenzyl)aminoethyl-4-methyl-2-thienylketone] | 10 | 20 | 30 | 0 | 10 | 20 | – | – | – | – | – | –
15 | Cc1csc(C(=O)CCN(CCO)Cc2ccccc2)c1 [Example 323, 2-(N-benzylhydroxyethyl)aminoethyl-4-methyl-2-thienylketone] | 30 | 50 | 30 | 0 | 0 | 30 | – | – | – | – | – | –
16 | CC(C)(C)N(CCC(=O)c1ccc(Br)cc1)Cc1ccccc1 [Example 324, 2-(N-benzyl-t-butyl)aminoethyl-4-bromophenylketone] | 50 | 40 | 40 | 20 | 20 | 20 | – | – | – | – | – | –
17 | O=C(CCN(Cc1ccccc1)Cc1ccccc1)c1ccc(Br)s1 [Example 325, 2-(N-dibenzyl)aminoethyl-5-bromo-2-thienylketone] | 20 | 20 | 50 | 0 | 20 | 40 | – | – | – | – | – | –
18 | CN(CCC(=O)c1ccc(Br)s1)Cc1ccccc1 [Example 326, 2-(N-benzylmethyl)aminoethyl-5-bromo-2-thienylketone] | 40 | 10 | 40 | 10 | 30 | 60 | – | – | – | – | – | –
19 | O=C(CCN(CCO)Cc1ccccc1)c1ccc(Br)s1 [Example 327, 2-(N-benzylhydroxyethyl)aminoethyl-5-bromo-2-thienylketone] | 70 | 10 | 40 | 20 | 20 | 30 | – | – | – | – | – | –
20 | CN(CCO)CCC(=O)c1ccc(Br)s1 [Example 328, 2-(N-hydroxyethylmethyl)aminoethyl-5-bromo-2-thienylketone] | 0 | 10 | 80 | 10 | 10 | 0 | – | – | – | – | – | –
21 | CC(C)N(CCO)CCC(=O)c1ccc(Br)s1 [Example 329, 2-(N-hydroxyethylisopropyl)aminoethyl-5-bromo-2-thienylketone] | 0 | 10 | 50 | 20 | 20 | 10 | – | – | – | – | – | –
22 | O=C(CCN(CCO)CCO)c1ccc(Br)s1 [Example 330, 2-(N-bishydroxyethyl)aminoethyl-5-bromo-2-thienylketone] | 30 | 40 | 50 | 10 | 10 | 20 | – | – | – | – | – | –
23 | CCN(CCO)CCC(=O)c1ccc(Br)s1 [Example 331, 2-(N-2-hydroxyethylethyl)aminoethyl-5-bromo-2-thienylketone] | 0 | 10 | 70 | 0 | 10 | 20 | – | – | – | – | – | –
24 | CC(C)(C)N(CCO)CCC(=O)c1ccc(Br)s1 [Example 332, 2-(N-hydroxyethyl-t-butyl)aminoethyl-5-bromo-2-thienylketone] | – | – | – | – | – | – | 0 | 10 | 50 | 0 | 10 | 20
25 | O=C(CCN1CCCC1CO)c1ccc(Br)s1 (stereo not drawn) [Example 333, 2-(2-hydroxymethylpyrrolidinyl)aminoethyl-5-bromo-2-thienylketone] | 0 | 30 | 50 | 20 | 30 | 20 | – | – | – | – | – | –
26 | NCCN(CCO)CCC(=O)c1ccc(Br)s1 [Example 334, 2-(N-2-hydroxyethyl-N-2-aminoethyl)aminoethyl-5-bromo-2-thienylketone] | 20 | 0 | 60 | 30 | 30 | 40 | – | – | – | – | – | –
